Counter-ions that a name gives are not always drawn.
Target: T1, α7-subtype of nicotinic receptors (Rattus norvegicus, UniProt Q05941)
T1 construct: Cerebral cortices from male Wistar rats (150–250 g) are homogenised; from tissue; host or cells: rat cerebral cortex membrane homogenate (male Wistar rats)
Experiment: In vitro inhibition of 3H-α-bungarotoxine binding in rat brain
Conditions: cerebral cortices from male Wistar rats, homogenate; 3H-α-bungarotoxine 2 nM; 2 hours at 37° C.

T1 sequence (Q05941 23-502): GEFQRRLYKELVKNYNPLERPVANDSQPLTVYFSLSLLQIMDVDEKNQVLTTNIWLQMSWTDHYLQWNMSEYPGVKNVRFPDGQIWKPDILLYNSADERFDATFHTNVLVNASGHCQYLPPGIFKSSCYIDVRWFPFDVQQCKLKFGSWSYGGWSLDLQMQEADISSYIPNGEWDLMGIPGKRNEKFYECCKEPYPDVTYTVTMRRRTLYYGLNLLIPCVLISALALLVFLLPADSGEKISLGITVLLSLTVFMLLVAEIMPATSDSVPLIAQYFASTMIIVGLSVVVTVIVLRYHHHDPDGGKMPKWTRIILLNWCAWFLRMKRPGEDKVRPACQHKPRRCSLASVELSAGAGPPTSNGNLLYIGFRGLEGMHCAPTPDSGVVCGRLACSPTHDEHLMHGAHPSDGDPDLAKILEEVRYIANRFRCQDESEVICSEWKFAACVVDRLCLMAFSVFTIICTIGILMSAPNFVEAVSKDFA

| Structure (SMILES) | IC50 [nM] |
| --- | --- |
| c1ccc(-c2nnc(N3CCN4CCC3CC4)s2)cc1 [Compound 1A, 4-(5-Phenyl-1,3,4-thiadiazol-2-yl)-1,4-diazabicyclo[3.2.2]nonane fumaric acid salt] | 6.7 |
| c1ccc(-c2nnc(N3CCN4CCC3CC4)o2)cc1 [Compound D1, 4-(5-Phenyl-1,3,4-oxadiazol-2-yl)-1,4-diazabicyclo[3.2.2]nonane fumaric acid salt] | 5.8 |
| O=C(O)/C=C/C(=O)O.c1csc(-c2nnc(N3CCN4CCC3CC4)o2)c1 [Compound D5, 4-[5-(2-Thienyl)-1,3,4-oxadiazol-2-yl]-1,4-diazabicyclo[3.2.2]nonane fumaric acid salt] | 22 |

System: not given
Experiment: not given
Conditions: not given

| Structure (SMILES) | melting point [°C] |
| --- | --- |
| O=C(O)/C=C/C(=O)O.c1ccc2cc(-c3nnc(N4CCN5CCC4CC5)o3)ccc2c1 | 194.6 to 195.7 |
| O=C(O)/C=C/C(=O)O.c1coc(-c2nnc(N3CCN4CCC3CC4)o2)c1 | 175 |
| COc1ccc(-c2nnc(N3CCN4CCC3CC4)o2)cc1.O=C(O)/C=C/C(=O)O | 190.1 to 191.2 |
| O=C(O)/C=C/C(=O)O.c1cc(-c2nnc(N3CCN4CCC3CC4)o2)ccn1 | 165.9 to 166.8 |
| O=C(O)/C=C/C(=O)O.c1cncc(-c2nnc(N3CCN4CCC3CC4)o2)c1 | 176.8 to 177.5 |
| Clc1ccc(-c2nnc(N3CCN4CCC3CC4)o2)cc1.O=C(O)/C=C/C(=O)O | 184.3 to 185.8 |
| COc1cccc(-c2nnc(N3CCN4CCC3CC4)o2)c1.O=C(O)/C=C/C(=O)O | 126 to 164 |
| O=C(O)/C=C/C(=O)O.c1ccc(-c2ccc(-c3nnc(N4CCN5CCC4CC5)o3)cc2)cc1 | 238 to 239 |
| O=C(O)/C=C/C(=O)O.c1csc(-c2nnc(N3CCN4CCC3CC4)o2)c1 [Compound D5, 4-[5-(2-Thienyl)-1,3,4-oxadiazol-2-yl]-1,4-diazabicyclo[3.2.2]nonane fumaric acid salt] | 161.8 to 162.7 |
